# Results from patent US12729377B2, “RNAi agents and compositions for inhibiting expression of angiopoietin-like 3 (ANGPTL3), and methods of use” (Arrowhead Pharmaceuticals, Inc., priority 2017, dated 2026).
# In the oligonucleotide strings, read from the 5' end, every base follows the letter of its sugar. An asterisk marks phosphorothioate; unmarked linkages are phosphodiester. Other units and linkages are bracketed, terminal groups are in braces. A string of capitals states the bases alone. {NAG37} = tridentate N-acetyl-galactosamine targeting ligand, structure (NAG37)s; [invAb] = inverted abasic unit; m = 2'-O-methyl; f = 2'-fluoro
# What was measured:
# ANGPTL3 gene [1] = assay: Example 3: serum triglycerides in mice; type: in vivo
# Procedure: (§1) To assess the in vivo activity of ANGPTL3 RNAi agents that are designed to target positions 921 and 922 on the ANGPTL3 gene, six- to eight-week-old female C57bl/6 mice were used. Pre-dose serum samples were taken at day −1 after a four hour fast. At day 1, each mouse was given a single subcutaneous administration of 200 μl containing either 1 mg/kg (mpk) of an ANGPTL3 RNAi agent in D5W (dextrose in 5% water), or control (D5W) with no RNAi agent, according to the dosing groups recited in Table 12.
# Each of the RNAi agents included a modified sequence and an N-acetyl-galactosamine-containing targeting ligand conjugated to the 5′ terminal end of the sense strand. (See Tables 3, 4, and 5 for modified sequences and targeting ligand structures). The injections were performed between the skin and muscle (i.e. subcutaneous injections) into the loose skin over the neck and shoulder area. Three (3) mice in each group were tested (n=3). […] Mice were fasted for four hours prior to each collection. ANGPTL3 protein levels in serum were measured by ELISA assay (R&D Systems), according to the manufacturer's recommendations. Triglycerides, high-density lipoprotein (HDL), and total cholesterol in serum were measured on a Cobas® Integra 400 (Roche Diagnostics), according to the manufacturer's recommendations.
# (§2) The ANGPTL3 protein levels, triglyceride levels, HDL levels, and total cholesterol levels for each animal were normalized. For normalization, the level of ANGPTL3 protein, triglyceride, HDL, and total cholesterol, respectively, for each animal at a time point, was divided by the pre-treatment level of expression in that animal (in this case at day −1) to determine the ratio of expression “normalized to pre-treatment.” Expression at a specific time point was then normalized to the D5W control group by dividing the “normalized to pre-treatment” ratio for an individual animal by the mean “normalized to pretreatment” ratio of all mice in the D5W control group.
# ANGPTL3 gene [2] = assay: Example 4: serum triglycerides in mice; type: in vivo
# Procedure: as §1, with “target additional” for “target”, “positions” for “positions 921 and 922”, “(mpk) or 0.5 mg/kg (mpk)” for “(mpk)”, “17.” for “12.”
# (§3) Each of the RNAi agents included a modified sequence and an N-acetyl-galactosamine-containing targeting ligand conjugated to the 5′ terminal end of the sense strand. (See Tables 3, 4, and 5 for modified sequences and targeting ligand structures). The injections were performed between the skin and muscle (i.e. subcutaneous injections) into the loose skin over the neck and shoulder area. Three (3) mice in each group were tested (n=3). Serum was collected on days 8, 15, 22, 29, and day 43 (Groups 1-3, 9, and 11-13 only). Mice were fasted for four hours prior to each collection. ANGPTL3 protein levels in serum were measured by ELISA assay (R&D Systems), according to the manufacturer's recommendations. Triglycerides, high-density lipoprotein (HDL), and total cholesterol in serum were measured on a Cobas® Integra 400 (Roche Diagnostics), according to the manufacturer's recommendations.
# as §2
# ANGPTL3 gene [3] = assay: Example 7: serum total cholesterol in mice; type: in vivo, C57bl/6 mice; design: key: ratio: (level/pre-treatment day -1 level) ÷ mean of D5W control group
# Procedure, shortened: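 Female C57bl/6 mice (6–8 weeks, n=3) received a single subcutaneous dose of 0.5 mg/kg GalNAc-conjugated RNAi agent or D5W vehicle. Serum was taken after a 4 h fast at day −1 and days 8, 15, 22 and 29. ANGPTL3 was measured by ELISA and lipids by clinical analyzer, each normalised to the animal's pre-dose level and then to the D5W group mean.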
# ANGPTL3 gene [4] = assay: Example 4: serum HDL in mice; type: in vivo, C57bl/6 mice
# Procedure: as §1, with “target additional” for “target”, “positions” for “positions 921 and 922”, “(mpk) or 0.5 mg/kg (mpk)” for “(mpk)”, “17.” for “12.”
# as §3, §2
# ANGPTL3 protein = assay: Example 4: serum ANGPTL3 protein by ELISA in mice; type: in vivo, C57bl/6 mice; settings: 1.0 mg/kg single subcutaneous dose on day 1, serum, female C57bl/6 mice
# Procedure: as §1, with “target additional” for “target”, “positions” for “positions 921 and 922”, “(mpk) or 0.5 mg/kg (mpk)” for “(mpk)”, “17.” for “12.”
# as §3, §2
# [5] = Day 8, 1.0 mg/kg single subcutaneous dose on day 1, female C57bl/6 mice
# [6] = Day 15, 1.0 mg/kg single subcutaneous dose on day 1, female C57bl/6 mice
# [7] = Day 22, 1.0 mg/kg single subcutaneous dose on day 1, female C57bl/6 mice
# [8] = Day 29, 1.0 mg/kg single subcutaneous dose on day 1, female C57bl/6 mice
substance,measurement,setting,value
"AD05418: RNAi agent duplex: antisense AM07159-AS, sense AM07158-SS (antisense mU*fU*mU*fGmAfAmUfUmAfAmUfGmUfCmCfAmUfGmGfG*mU; sense {NAG37}*[invAb]*mAmCmCmCmAmUmGmGfAfCfAmUmUmAmAmUmUmCmAmAmA*[invAb])",Avg TG (Average Triglycerides Normalized to Pre-Treatment and Control),ANGPTL3 gene [1]; [5],0.718
same,Avg TG (Average Triglycerides Normalized to Pre-Treatment and Control),ANGPTL3 gene [1]; [6],0.791
same,Avg TG (Average Triglycerides Normalized to Pre-Treatment and Control),ANGPTL3 gene [1]; [7],0.855
same,Avg TG (Average Triglycerides Normalized to Pre-Treatment and Control),ANGPTL3 gene [1]; [8],0.881
same,Avg TG (Average Triglycerides Normalized to Pre-Treatment and Control),ANGPTL3 gene [2]; [5],0.858
same,Avg TG (Average Triglycerides Normalized to Pre-Treatment and Control),ANGPTL3 gene [2]; [6],1.065
same,Avg TG (Average Triglycerides Normalized to Pre-Treatment and Control),ANGPTL3 gene [2]; [7],1.079
same,Avg TG (Average Triglycerides Normalized to Pre-Treatment and Control),ANGPTL3 gene [2]; [8],0.980
same,Avg TG (Average Triglycerides Normalized to Pre-Treatment and Control),"ANGPTL3 gene [2]; Day 43, 1.0 mg/kg single subcutaneous dose on day 1, female C57bl/6 mice",0.892
same,"Avg Total Chol, normalized to pre-treatment and control","ANGPTL3 gene [3]; Day 8, 0.5 mg/kg single SC injection on day 1, n=3",0.950
same,"Avg Total Chol, normalized to pre-treatment and control","ANGPTL3 gene [3]; Day 15, 0.5 mg/kg single SC injection on day 1, n=3",0.878
same,"Avg Total Chol, normalized to pre-treatment and control","ANGPTL3 gene [3]; Day 22, 0.5 mg/kg single SC injection on day 1, n=3",0.926
same,"Avg Total Chol, normalized to pre-treatment and control","ANGPTL3 gene [3]; Day 29, 0.5 mg/kg single SC injection on day 1, n=3",1.023
same,"Avg HDL, normalized to pre-treatment and control","ANGPTL3 gene [4]; Day 8, 1.0 mg/kg single SC injection on day 1, n=3",0.828
same,"Avg HDL, normalized to pre-treatment and control","ANGPTL3 gene [4]; Day 15, 1.0 mg/kg single SC injection on day 1, n=3",0.730
same,"Avg HDL, normalized to pre-treatment and control","ANGPTL3 gene [4]; Day 22, 1.0 mg/kg single SC injection on day 1, n=3",0.846
same,"Avg HDL, normalized to pre-treatment and control","ANGPTL3 gene [4]; Day 29, 1.0 mg/kg single SC injection on day 1, n=3",0.845
same,"Avg HDL, normalized to pre-treatment and control","ANGPTL3 gene [4]; Day 43, 1.0 mg/kg single SC injection on day 1, n=3",1.018
same,Avg ANGPTL3 (Average ANGPTL3 Protein Normalized to Pre-Treatment and Control),ANGPTL3 protein; Day 8,0.258
same,Avg ANGPTL3 (Average ANGPTL3 Protein Normalized to Pre-Treatment and Control),ANGPTL3 protein; Day 15,0.270
same,Avg ANGPTL3 (Average ANGPTL3 Protein Normalized to Pre-Treatment and Control),ANGPTL3 protein; Day 22,0.387
same,Avg ANGPTL3 (Average ANGPTL3 Protein Normalized to Pre-Treatment and Control),ANGPTL3 protein; Day 29,0.407
same,Avg ANGPTL3 (Average ANGPTL3 Protein Normalized to Pre-Treatment and Control),ANGPTL3 protein; Day 43,0.847
